Measured values: patent US12338243B2, “P2X7 modulators” (JANSSEN PHARMACEUTICA NV, priority 2014, dated 2025)

Experiments:
P2X7 [1] = molecular target: T1, P2X7 (Homo sapiens, UniProt Q99572); experiment: P2X7 antagonism in human whole blood (IL-1β release, ELISA); assay type: cell-based; design: PBMCs were isolated from blood using a Ficoll density gradient technique; endogenous in cells; host or cells: human PBMCs / human whole blood from donors; details: LPS 30 ng/ml + 1 mM Bz-ATP
T1 sequence (Q99572 1-595): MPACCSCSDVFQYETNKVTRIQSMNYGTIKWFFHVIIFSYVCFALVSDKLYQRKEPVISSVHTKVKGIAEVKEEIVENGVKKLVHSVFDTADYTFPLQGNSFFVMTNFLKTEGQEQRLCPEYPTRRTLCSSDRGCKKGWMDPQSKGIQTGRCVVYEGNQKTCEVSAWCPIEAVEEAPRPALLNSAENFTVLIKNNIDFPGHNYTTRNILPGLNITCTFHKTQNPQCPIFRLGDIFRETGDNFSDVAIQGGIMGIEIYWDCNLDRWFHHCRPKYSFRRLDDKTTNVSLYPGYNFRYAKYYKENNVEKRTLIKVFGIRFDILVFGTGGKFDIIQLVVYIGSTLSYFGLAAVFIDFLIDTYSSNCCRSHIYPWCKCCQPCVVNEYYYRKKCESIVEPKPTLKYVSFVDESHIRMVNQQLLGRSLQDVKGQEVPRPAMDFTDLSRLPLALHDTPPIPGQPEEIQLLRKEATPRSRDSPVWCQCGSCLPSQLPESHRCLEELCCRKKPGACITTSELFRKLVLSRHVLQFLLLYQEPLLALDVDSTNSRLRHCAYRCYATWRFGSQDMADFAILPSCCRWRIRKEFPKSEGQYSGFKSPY
Protocol: (§1) P2X7 Antagonism in Human Peripheral Blood Mononuclear Cells (PBMCs) and Human Whole Blood.
(§2) Human blood was collected using a blood donor program. PBMCs were isolated from blood using a Ficoll density gradient technique. Briefly, blood was laid on Ficoll solution and centrifuged at RT for 20 minutes at 2000 rpm. The buffy layer (between red blood cells and plasma) was carefully collected by aspiration, washed with PBS and centrifuged again at 1500 rpm for 15 minutes. The resulting cell pellet was washed and plated on 96 well-plates for experiments. For the Human Whole Blood experiments, 150 μl of human blood was platted on 96 well-plates. Lipopolysaccharide (LPS) (30 ng/ml) was added to each well and incubated for 1 hour. Test compounds were then added and incubated for 30 minutes. The P2X7 agonist, 2′(3′)-O-(4-benzoylbenzoyl) adenosine 5′ triphosphate (Bz-ATP) was then added at a final concentration of 0.5 mM (PBMC) or 1 mM (blood). Cells were incubated for an additional 1.5 hours. At that point, supernatant was collected and stored for IL-1β assay using manufacturer's protocol for enzyme-linked immunosorbent assay (ELISA). Data was expressed as percent control, where control is defined as the difference in IL-1β release in LPS+Bz-ATP samples and LPS only samples. Data was plotted as response (% control) versus concentration to generate IC50 values. […] Data are analyzed and graphed on Graphpad Prism 5. For analysis, each concentration point is averaged from triplicate values and the averaged values are plotted on Graphpad Prism. The IC50 for each compound is then uploaded into 3DX.

P2X7 [2] = molecular target: T1, P2X7; experiment: Ca2+ flux (FLIPR) in 1321N1 cells expressing recombinant human P2X7 channel; assay type: cell-based; design: expressed in transfected cells; host or cells: 1321N1 cells; details: 250 μM BzATP
Method in brief: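 1321N1 cells expressing recombinant human P2X7, loaded 60 min with Calcium-4 dye in HEPES buffer pH 7.40 (1 mM CaCl2, 1 mM MgCl2), preincubated 30 min with compounds. Fluorescence change recorded 180 seconds after agonist addition.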

P2X7 [3] = molecular target: T1, P2X7; experiment: Radioligand binding, human P2X7-1321N1 cell membranes, tritiated A-804598
Source text: (§3) P2X7 Antagonism in Recombinant Human P2X7 Cells or Recombinant Rat P2X7 Cells: (a) Ca^2+ Flux and (b) Radioligand Binding

rat P2X7 [4] = molecular target: T2, rat P2X7 (Rattus norvegicus, UniProt Q64663); experiment: Radioligand binding, rat P2X7-1321N1 cell membranes, tritiated A-804598
T2 sequence (Q64663 1-595): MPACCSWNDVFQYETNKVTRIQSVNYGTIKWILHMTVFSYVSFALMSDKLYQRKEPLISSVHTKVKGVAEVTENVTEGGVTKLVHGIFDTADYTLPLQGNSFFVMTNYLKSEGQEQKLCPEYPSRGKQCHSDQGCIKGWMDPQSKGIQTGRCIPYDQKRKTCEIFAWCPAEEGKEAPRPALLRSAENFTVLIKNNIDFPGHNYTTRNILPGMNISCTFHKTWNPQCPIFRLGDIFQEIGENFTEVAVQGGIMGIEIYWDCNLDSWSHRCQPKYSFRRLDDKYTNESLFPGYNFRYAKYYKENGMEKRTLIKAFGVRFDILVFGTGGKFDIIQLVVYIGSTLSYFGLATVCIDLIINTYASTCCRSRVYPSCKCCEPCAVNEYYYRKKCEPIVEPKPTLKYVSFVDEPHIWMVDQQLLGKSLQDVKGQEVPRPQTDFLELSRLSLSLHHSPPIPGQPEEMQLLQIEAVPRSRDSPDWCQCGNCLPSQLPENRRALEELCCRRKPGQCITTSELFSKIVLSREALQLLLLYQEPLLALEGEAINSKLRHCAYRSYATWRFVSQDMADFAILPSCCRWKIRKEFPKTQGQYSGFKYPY
Source text: as §3

rat P2X7 [5] = molecular target: T2, rat P2X7; experiment: Ca2+ flux (FLIPR) in 1321N1 cells expressing recombinant rat P2X7 channel; details: FLIPR (rat) IC50 (μM), 250 μM BzATP
P2X7 [6] = molecular target: T1, P2X7; experiment: P2X7 antagonism in human PBMCs (IL-1β release, ELISA); assay type: cell-based; design: PBMCs were isolated from blood using a Ficoll density gradient technique; endogenous in cells; host or cells: human PBMCs / human whole blood from donors; details: LPS 30 ng/ml + 0.5 mM Bz-ATP, compound 10 μM
Protocol: as §1, §2

| IC50 (P2X7 [1]) [nM] | IC50 (P2X7 [2]) [nM] | Ki (P2X7 [3]) [nM] | Ki (rat P2X7 [4]) [nM] | IC50 (rat P2X7 [5]) [µM] | PBMC 10 μM (% control) (P2X7 [6]) | SMILES |
| --- | --- | --- | --- | --- | --- | --- |
| 79 | 2 | 15.8 | 39.8 | 0.0628 | – | Cc1nnc2n1CCN(C(=O)c1cccc(C(F)(F)F)c1Cl)C2c1ccccc1 (racemic) [Example 53, (2-chloro-3-(trifluoromethyl)phenyl)(3-methyl-8-phenyl-5,6-dihydro-[1,2,4]triazolo[4,3-a]pyrazin-7(8H)-yl)methanone] |
| – | 9.7 | 31.6 | – | 0.211 | 8.9 | O=C(c1ccc(F)c(C(F)(F)F)c1Cl)N1CCn2c(nnc2C(F)(F)F)C1c1ccccc1 (single isomer, unassigned) [Example 95, (R*)-(2-chloro-4-fluoro-3-(trifluoromethyl)phenyl)(8-phenyl-3-(trifluoromethyl)-5,6-dihydro-[1,2,4]triazolo[4,3-a]pyrazin-7(8H)-yl)methanone] |
| – | 4890 | – | – | > 10 | 43.6 | O=C(c1ccc(F)c(C(F)(F)F)c1Cl)N1CCn2c(nnc2C(F)(F)F)C1c1ccccc1 (single isomer, unassigned) [Example 96, (S*)-(2-chloro-4-fluoro-3-(trifluoromethyl)phenyl)(8-phenyl-3-(trifluoromethyl)-5,6-dihydro-[1,2,4]triazolo[4,3-a]pyrazin-7(8H)-yl)methanone] |
| – | 9.1 | 17.4 | 6.3 | 0.0348 | 4.9 | O=C(c1ccnc(C(F)(F)F)c1Cl)N1CCn2c(nnc2C(F)(F)F)C1c1ccccc1 (single isomer, unassigned) [Example 99, (R*)-(3-chloro-2-(trifluoromethyl)pyridin-4-yl)(8-phenyl-3-(trifluoromethyl)-5,6-dihydro-[1,2,4]triazolo[4,3-a]pyrazin-7(8H)-yl)methanone] |
| – | – | – | – | – | 102.0 | O=C(c1ccnc(C(F)(F)F)c1Cl)N1CCn2c(nnc2C(F)(F)F)C1c1ccccc1 (single isomer, unassigned) [Example 100, (S*)-(3-chloro-2-(trifluoromethyl)pyridin-4-yl)(8-phenyl-3-(trifluoromethyl)-5,6-dihydro-[1,2,4]triazolo[4,3-a]pyrazin-7(8H)-yl)methanone] |
| 25 | 6.8 | 21.9 | – | 0.0047 | – | C[C@H]1Cn2c(nnc2-c2ccco2)CN1C(=O)c1cccc(C(F)(F)F)c1Cl [Example 24, (S)-(2-chloro-3-(trifluoromethyl)phenyl)(3-(furan-2-yl)-6-methyl-5,6-dihydro-[1,2,4]triazolo[4,3-a]pyrazin-7(8H)-yl)methanone] |
| 1590 | 83.8 | 50.1 | – | 0.927 | – | C[C@H]1Cn2c(nnc2-c2cc(F)c(F)c(F)c2)CN1C(=O)c1cccc(C(F)(F)F)c1Cl [Example 30, (S)-(2-chloro-3-(trifluoromethyl)phenyl)(6-methyl-3-(3,4,5-trifluorophenyl)-5,6-dihydro-[1,2,4]triazolo[4,3-a]pyrazin-7(8H)-yl)methanone] |
| – | 8.6 | 5.8 | 10 | 0.0816 | – | O=C(c1cccc(C(F)(F)F)c1Cl)N1CCn2c(C(F)F)nnc2[C@H]1c1ccccc1 [Example 108, (R)-(2-chloro-3-(trifluoromethyl)phenyl)(3-(difluoromethyl)-8-phenyl-5,6-dihydro-[1,2,4]triazolo[4,3-a]pyrazin-7(8H)-yl)methanone] |
| – | 3.4 | 7.9 | 16.6 | 0.441 | – | O=C(c1cccc(Cl)c1Cl)N1CCn2c(C(F)F)nnc2[C@H]1c1ccccc1 [Example 110, (R)-(2,3-dichlorophenyl)(3-(difluoromethyl)-8-phenyl-5,6-dihydro-[1,2,4]triazolo[4,3-a]pyrazin-7(8H)-yl)methanone] |
